20 compounds from patent US11149022B2, “Antagonists of the muscarinic acetylcholine receptor M4” (Vanderbilt University, priority 2017, dated 2021) can be followed below.

The target of this assay is T1, Human M4 (Homo sapiens, UniProt P08173).
T1 construct: expressed in transfected cells; host or cells: CHO-K1 (ATCC), stably co-expressing chimeric G protein Gqi5
T1 sequence (P08173 1-479): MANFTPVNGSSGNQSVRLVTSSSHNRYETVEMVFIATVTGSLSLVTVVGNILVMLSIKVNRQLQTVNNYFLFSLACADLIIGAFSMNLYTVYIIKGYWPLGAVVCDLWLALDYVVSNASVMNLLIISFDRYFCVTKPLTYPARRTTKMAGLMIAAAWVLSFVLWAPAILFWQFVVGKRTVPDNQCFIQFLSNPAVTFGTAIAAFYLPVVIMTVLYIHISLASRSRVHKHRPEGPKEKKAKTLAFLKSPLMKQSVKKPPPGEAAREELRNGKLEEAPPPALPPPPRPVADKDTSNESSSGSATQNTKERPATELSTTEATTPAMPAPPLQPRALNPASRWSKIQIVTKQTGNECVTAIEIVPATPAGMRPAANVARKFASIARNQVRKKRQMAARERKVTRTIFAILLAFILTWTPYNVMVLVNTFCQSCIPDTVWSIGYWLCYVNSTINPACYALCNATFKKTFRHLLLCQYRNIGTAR
Description: mAChR M4 cell-based functional assay (calcium flux, antagonist mode). Conditions: for remaining activity at 30 µM: % ACh maximum at 30 μM, read-out: Emin; for IC50: M4/Gqi5/CHO-K1 cells, concentration-dependent decrease of the EC80 acetylcholine response. As for the experimental part:
Human or rat M4 cDNA, along with the chimeric G protein Gqi5, were transfected into Chinese hamster ovary (CHO-K1) cells purchased from the American Type Culture Collection using Lipofectamine2000. M4/Gqi5/CHO cells were grown in Ham's F-12 medium containing 10% heat-inactivated fetal bovine serum (FBS), 20 mM HEPES, 500 μg/mL G418 sulfate, and 200 μg/mL Hygromycin B.
For high throughput measurement of agonist-evoked increases in intracellular calcium, CHO-K1 cells stably expressing muscarinic receptors were plated in growth medium lacking G418 and hygromycin at 15,000 cells/20 μL/well in Greiner 384-well black-walled, tissue culture (TC)-treated, clear-bottom plates (VWR). Cells were incubated overnight at 37° C. and 5% CO2. The next day, cells were washed using an ELX 405 (BioTek) with assay buffer; the final volume was then aspirated to 20 μL, Next, 20 μL of a 2.3 μM stock of Fluo-4/acetoxymethyl ester (Invitrogen, Carlsbad, Calif.), prepared as a 2.3 μM stock in DMSO, mixed in a 1:1 ratio with 10% (w/v) Pluronic F-127 and diluted in assay buffer, was added to the wells and the cell plates were incubated for 50 min at 37° C. and 5% CO2. Dye was removed by washing with the ELX 405 and the final volume was aspirated to […]. Compound master plates were formatted in a 10 point concentration-response curve (CRC) format (1:3 dilutions) in 100% DMSO with a starting concentration of 10 or 1 mM using a BRAVO liquid handler (Agilent). Test compound CRCs were then transferred to daughter plates (240 nL) using the Echo acoustic plate reformatter (Labcyte, Sunnyvale, Calif.) and then diluted into assay buffer (40 μL) to a 2× stock using a Thermo Fisher Combi (Thermo Fisher Scientific, Waltham, Mass.).
Calcium flux was measured using the Functional Drug Screening System (FDSS) 6000 or 7000 (Hamamatsu Corporation, Tokyo, Japan) as an increase in the fluorescent static ratio. Compounds were applied to cells (20 μL, 2×) using the automated system of the FDSS at 2 seconds into the protocol and the data were collected at 1 Hz. At 143 s, 10 μL of an EC20 concentration of the muscarinic receptor agonist acetylcholine was added (5×), followed by the addition of 12 μL of an EC80 concentration of acetylcholine at the 268 s time point (5×). Agonist activity was analyzed as a concentration-dependent increase in calcium mobilization upon compound addition. Positive allosteric modulator activity was analyzed as a concentration-dependent increase in the EC20 acetylcholine response. Antagonist activity was analyzed as a concentration-dependent decrease in the EC80 acetylcholine response; for the purposes of the tables herein, an […] (inhibitory concentration 50) was calculated as a concentration-dependent decrease of the response elicited by an EC80 concentration of acetylcholine. Concentration-response curves were generated using a four-parameter logistical equation in XLFit curve fitting software (IDBS, Bridgewater, N.J.) for Excel (Microsoft, Redmond, Wash.) or Prism (GraphPad Software, Inc., San Diego, Calif.) or the Dotmatics software platform (Dotmatics, Bishop's Stortford, UK).
Compounds were synthesized as described above. Activity (IC50 and Emin) was determined in the mAChR M4 cell-based functional assay as described above and the data are shown in Table 4.
(Calcium flux is commonly read through the fluorescence of an indicator in the cells.)

By IC50 is commonly meant the concentration that gives 50% inhibition. As for `Fc1ccc(Cl)c(-c2ccc(NCC3CC4(CCN(CC5CCOCC5)CC4)C3)nn2)c1` [Compound 44, 6-(2-chloro-5-fluoro-phenyl)-N-[[7-(tetrahydropyran-4-ylmethyl)-7-azaspiro[3.5]nonan-2-yl]methyl]pyridazin-3-amine], the remaining activity at 30 µM stood at 4.66% and the IC50 amounted to 730 nM.
For `Cc1cnn(C)c1-c1ccc(OC2CC3(CCN(Cc4ccccc4)CC3)C2)nn1` [Compound 37, 7-benzyl-2-[6-(2,4-dimethylpyrazol-3-yl)pyridazin-3-yl]oxy-7-azaspiro[3.5]nonane] the same measures were 10.8% and 3450 nM.
Turning to `Fc1ccc(Cl)c(-c2ccc(NCC3CC4(CCN(Cc5ccccc5F)CC4)C3)nn2)c1` [Compound 46, 6-(2-chloro-5-fluoro-phenyl)-N-[[7-[(2-fluorophenyl)methyl]-7-azaspiro[3.5]nonan-2-yl]methyl]pyridazin-3-amine], the remaining activity at 30 µM was 9.19% and the IC50 stood at 780 nM.
As for `Cc1nn(C)cc1-c1ccc(NCC2CC3(CCN(CCC(C)(C)C)CC3)C2)nn1` [Compound 39, N-[[7-(3,3-Dimethylbutyl)-7-azaspiro[3.5]nonan-2-yl]methyl]-6-(1,3-dimethylpyrazol-4-yl)pyridazin-3-amine], the remaining activity at 30 µM was found to be 4.55% and the IC50 was determined as 220 nM.
For `Cc1cccnc1CN1CCC2(CC1)CC(Oc1ccc(-c3c(C)cnn3C)nn1)C2` [Compound 38, 2-[6-(2,4-dimethylpyrazol-3-yl)pyridazin-3-yl]oxy-7-[(3-methyl-2-pyridyl)methyl]-7-azaspiro[3.5]nonane] the same measures were 14.8% and 7720 nM.
For `Fc1ccc(Cl)c(-c2ccc(NCC3CC4(CCN(CC5CCCOC5)CC4)C3)nn2)c1` (stereo not shown) [Compound 43, 6-(2-chloro-5-fluoro-phenyl)-N-[[7-(tetrahydropyran-3-ylmethyl)-7-azaspiro[3.5]nonan-2-yl]methyl]pyridazin-3-amine] the same measures were 5.29% and 2280 nM.
For `Cc1nn(C)cc1-c1ccc(OC2CC3(CCN(CC4CC5C=CC4C5)CC3)C2)nn1` (stereo not shown) [Compound 24, 7-(5-bicyclo[2,2.1]hept-2-enylmethyl)-2-[6-(1,3-dimethylpyrazol-4-yl)pyridazin-3-yl]oxy-7-azaspiro[3.5]nonane] the same measures were 2.76% and 110 nM.
Take `Cc1nn(C)cc1-c1ccc(NC2CC3(CCN(CC4CCOCC4)CC3)C2)nn1` [Compound 5, N-[6-(1,3-dimethylpyrazol-4-yl)pyridazin-3-yl]-7-(tetrahydropyran-4-ylmethyl)-7-azaspiro[3.5]nonan-2-amine]: the remaining activity at 30 µM is 15.9% and the IC50 is greater than 10000 nM.
For `CC(C)(C)CCN1CCC2(CC1)CC(COc1ccc(-c3cc(F)ccc3Cl)nn1)C2` [Compound 60, 2-[[6-(2-Chloro-5-fluoro-phenyl)pyridazin-3-yl]oxymethyl]-7-(3,3-dimethylbutyl)-7-azaspiro[3.5]nonane] the same measures were 3.47% and 300 nM.
For `Fc1ccc(Cl)c(-c2ccc(OC3CC4(CCN(CC5CCSCC5)CC4)C3)nn2)c1` [Compound 21, 2-[6-(2-chloro-5-fluoro-phenyl)pyridazin-3-yl]oxy-7-(tetrahydrothiopyran-4-ylmethyl)-7-azaspiro[3.5]nonane] the same measures were 3.22% and 530 nM.
For `Cc1nn(C)cc1-c1ccc(NCC2CC3(CCN(Cc4ccc(F)cc4)CC3)C2)nn1` [Compound 58, 6-(1,3-dimethylpyrazol-4-yl)-N-[[7-[(4-fluorophenyl)methyl]-7-azaspiro[3.5]nonan-2-yl]methyl]pyridazin-3-amine] the same measures were 11.8% and 5100 nM.
Take `Fc1ccc(Cl)c(-c2ccc(OCC3CC4(CCN(Cc5ccccc5)CC4)C3)nn2)c1` [Compound 65, 7-benzyl-2-[[6-(2-chIoro-5-fluoro-phenyl)pyridazin-3-yl]oxymethyl]-7-azaspiro[3.5]nonane]: the remaining activity at 30 µM was 6.28% and the IC50 amounted to 2660 nM.
For `Cc1nn(C)cc1-c1ccc(OC2CC3(CCN(CC4CCCOC4)CC3)C2)nn1` (stereo not shown) [Compound 28, 2-[6-(1,3-dimethylpyrazol-4-yl)pyridazin-3-yl]oxy-7-(tetrahydropyran-3-ylmethyl)-7-azaspiro[3.5]nonane], the remaining activity at 30 µM is 17.1% and the IC50 was 5810 nM.
For `Cc1cnn(C)c1-c1ccc(NC2CC3(CCN(CC4CC5C=CC4C5)CC3)C2)nn1` (stereo not shown) [Compound 8, 7-(5-bicyclo[2.2.1]hept-2-enylmethyl)-N-[6-(2,4-dimethylpyrazol-3-yl)pyridazin-3-yl]-7-azaspiro[3.5]nonan-2-amine] the same measures were 2.86% and 10 nM.
For `Cc1nn(C)cc1-c1ccc(OC2CC3(CCN(CCC(C)(C)C)CC3)C2)nn1` [Compound 13, 7-(3,3-Dimethylbutyl)-2-[6-(1,3-dimethylpyrazol-4-yl)pyridazin-3-yl]oxy-7-azaspiro[3.5]nonane] the same measures were 2.85% and 200 nM.
For `CC(C)(C)CCN1CCC2(CC1)CC(Oc1ccc(-c3cc(F)ccc3Cl)nn1)C2` [Compound 15, 2-[6-(2-Chloro-5-fluoro-phenyl)pyridazin-3-yl]oxy-7-(3,3-dimethylbutyl)-7-azaspiro[3.5]nonane] the same measures were 3.01% and 330 nM.
For the compound `Cc1nn(C)cc1-c1ccc(OC2CC3(CCN(CC4CCCCC4)CC3)C2)nn1` [Compound 26, 7-(cyclohexylmethyl)-2-[6-(1,3-dimethylpyrazol-4-yl)pyridazin-3-yl]oxy-7-azaspiro[3.5]nonane], the remaining activity at 30 µM was determined as 4.43% and the IC50 came out at 630 nM.
For `Fc1ccc(Cl)c(-c2ccc(OCC3CC4(CCN(CC5CC6C=CC5C6)CC4)C3)nn2)c1` (stereo not shown) [Compound 61, 7-(5-bicyclo[2.2.1]hept-2-enylmethyl)-2-[[6-(2-chloro-5-fluoro-phenyl)pyridazin-3-yl]oxymethyl]-7-azaspiro[3.5]nonane] the same measures were 3.96% and 250 nM.
For `Fc1ccc(Cl)c(-c2ccc(OC3CC4(CCN(CC5CC6C=CC5C6)CC4)C3)nn2)c1` (stereo not shown) [Compound 16, 7-(5-bicyclo[2.2.1]hept-2-enylmethyl)-2-[6-(2-chloro-5-fluoro-phenyl)pyridazin-3-yl]oxy-7-azaspiro[3.5]nonane] the same measures were 3.07% and 180 nM.
`Cc1nn(C)cc1-c1ccc(NCC2CC3(CCN(Cc4ccccc4F)CC3)C2)nn1` [Compound 54, 6-(1,3-dimethylpyrazol-4-yl)-N-[[7-[(2-fluorophenyl)methyl]-7-azaspiro[3.5]nonan-2-yl]methyl]pyridazin-3-amine]: the remaining activity at 30 µM turned out to be 6.27% and the IC50 is 1120 nM.
